From the RepoRT retention time repository come the findings set out here.

This data set in a line: HILIC, Waters ACQUITY UPLC BEH Amide, 100 × 2.1 mm, 1.7 µm; A: water + 0.125% formic acid + 10 mM ammonium formate; B: 5% water + 95% acetonitrile + 0.125% formic acid + 10 mM ammonium formate; gradient (min/%B) 0/100 2/100 7.7/70 9.5/40 10.25/30 12.75/100 17/100. The following applies: stereoisomer not certain.
Turning to `CCN(C(C)=O)c1cccc(-c2ccnc3c(C#N)cnn23)c1` [Zaleplon], the LC retention time is 1.02 min.

Turning to `COc1cc(-c2ccc(=O)[nH]n2)ccc1OC(F)F` [Zardaverine], the LC retention time is 1.19 min.

For `CC1CCCC(O)CCCCCc2cc(O)cc(O)c2C(=O)O1` (stereo unspecified) [Zeranol], the LC retention time was 1.11 min.

For `CC(c1cc2ccccc2s1)N(O)C(N)=O` (stereo unspecified) [Zileuton], the LC retention time came to 1.23 min.

For the compound `CN(C)CCc1c[nH]c2ccc(CC3COC(=O)N3)cc12` (stereo unspecified) [Zolmitriptan], the LC retention time stood at 4.8 min.

Turning to `Cc1ccc(-c2nc3ccc(C)cn3c2CC(=O)N(C)C)cc1` [Zolpidem], the LC retention time was 1.62 min.

Take `N[C@H]1[C@@H](OP(=O)(O)O)O[C@H](CO)[C@H](O)[C@@H]1O` [alpha-Galactosamine-1-phosphate]: the LC retention time was 7.06 min.

Take `CSCCC(=O)C(=O)O` [alpha-Keto-gamma-(methylthio)butyric acid]: the LC retention time worked out at 0.92 min.

On to `C=C1CCOC1=O` [alpha-Methylene-gamma-butyrolactone], for which the LC retention time worked out at 1.05 min.

As to `C[C@](N)(Cc1cnc[nH]1)C(=O)O` [alpha-Methylhistidine], the LC retention time was 8.68 min.

Turning to `CC1=C2C3OC(=O)C(C)C3CCC2(C)C=CC1=O` (stereo not drawn) [alpha-Santonin], the LC retention time worked out at 1.07 min.

`NCCC(=O)O` [beta-Alanine]: the LC retention time was 8.02 min.

On to `CC(C)(O)CC(=O)O` [beta-Hydroxyisovaleric acid], for which the LC retention time worked out at 4.55 min.

As for `CNC[C@H](N)C(=O)O` [beta-N-Methylaminoalanine], the LC retention time turned out to be 9.32 min.

In the case of `NCC(O)CCC(N)C(=O)O` (stereo unspecified) [delta-Hydroxylysine], the LC retention time is 9.77 min.

Take `NCCCC(=O)O` [gamma-Aminobutyric Acid]: the LC retention time turned out to be 7.86 min.

On to `NC(CCC(=O)NC(CS)C(=O)O)C(=O)O` (stereo unspecified) [gamma-Glutamyl-cysteine], for which the LC retention time worked out at 8.98 min.

As for `NC(=O)CCC(NC(=O)CCC(N)C(=O)O)C(=O)O` (stereo unspecified) [gamma-Glutamylglutamine], the LC retention time came out at 9.55 min.

Take `CC(C)CC(NC(=O)CCC(N)C(=O)O)C(=O)O` (stereo unspecified) [gamma-Glutamylleucine]: the LC retention time was found to be 8.1 min.

For the compound `CSCCC(NC(=O)CCC(N)C(=O)O)C(=O)O` (stereo unspecified) [gamma-Glutamylmethionine], the LC retention time was determined as 8.55 min.

Take `NC(CCC(=O)NC(Cc1ccc(O)cc1)C(=O)O)C(=O)O` (stereo unspecified) [gamma-Glutamyltyrosine]: the LC retention time came out at 8.52 min.

Consider `CC(OP(=O)(O)O)C(N)C(=O)O` (stereo unspecified) [o-Phosphothreonine], for which the LC retention time turned out to be 9.74 min.

Consider `CN(C)c1ccc(N=Nc2ccccc2)cc1` [p-(Dimethylamino)azobenzene [methyl yellow]], for which the LC retention time was 0.93 min.

On to `O=C(O)C=Cc1ccc(O)cc1` [p-Coumaric acid], for which the LC retention time amounted to 1.38 min.

In the case of `CN1C(=O)C(O)CC1c1cccnc1` (stereo not drawn) [trans-3'-Hydroxycotinine], the LC retention time was 2.02 min.

For the compound `OCC1OC(Oc2cc(O)cc(C=Cc3ccc(O)cc3)c2)C(O)C(O)C1O` (stereo not drawn) [trans-Piceid], the LC retention time was found to be 4.64 min.
